These are literature values, as cited in the CATMoS acute toxicity set (Mansouri et al. 2021).

“And” between values parts separate entries of the source, which are not always exact repeats. Equal entries are not always repeated.

This data set can be described thus: rat acute oral toxicity. To be noted: in vivo.
What is called LD50 is the dose expected to kill half of the subjects tested. Take `CC1(C)S[C@@H]2[C@H](NC(=O)Cc3ccccc3)C(=O)N2[C@H]1C(=O)O`: the LD50 was 8900 mg/kg and 8000 mg/kg and 6920 mg/kg.
With `c1ccc2sc(SN(C3CCCCC3)C3CCCCC3)nc2c1`, the LD50 was 6420 mg/kg.
In the case of `Cc1cc(C)cc(O)c1`, the LD50 was 608 mg/kg.
On to `CCOP(=O)(Oc1ccc(Cl)cc1Cl)Oc1ccc(Cl)cc1Cl`, for which the LD50 is 6200 mg/kg.
With `Cc1cc(N)n(-c2ccccc2)n1`, the LD50 was 2500 mg/kg.
`C=C(C)C1CCC(C)(OP(=S)(OC)OC)CC1` (configuration not stated): the LD50 was 500 mg/kg.
With `C=CC(CCCCC)OC(C)=O` (configuration not stated), the LD50 was 850 mg/kg.
For `COC(=O)C1=C(C#N)NC(C)=C(C(=O)OC(C)C)C1c1cccc([N+](=O)[O-])c1` (configuration not stated), the LD50 was 1560 mg/kg.
For `CN(C)C(=O)c1ccccc1O`, the LD50 is 2300 mg/kg.
`CN(CC(=O)N1CCOCC1)Cc1c(Cl)cccc1NC(=O)c1ccccc1`: the LD50 is 4200 mg/kg.
Turning to `CCC(=O)c1ccc2c(c1)N(CCCN1CCN(C)CC1)c1ccccc1S2`, the LD50 was 600 mg/kg.
For the molecule `Cc1cc(Cl)cc(O)c1O`, the LD50 was 1410 mg/kg.
Regarding `Nc1ccc(N(c2ccccc2)c2ccc(N)cc2)cc1`, the LD50 was 330 mg/kg.
Take `Nc1cc(Cl)c(NC2=NCCN2)c(Cl)c1`: the LD50 was 38 mg/kg.
Consider `CC(C)(C)C(CS(C)(=O)=O)=NO`, for which the LD50 was 734 mg/kg.
As to `C[N+](C)(C)CCO`, the LD50 is 6640 mg/kg.
Turning to `O=C(O)C1=CCCN(CCOC(c2ccc(C(F)(F)F)cc2)c2ccc(C(F)(F)F)cc2)C1`, the LD50 is 894 mg/kg.
`N#Cc1ccccc1CN1CCc2sccc2C1`: the LD50 was 228 mg/kg.
Consider `O=C(O)c1c(Cl)ccc2cc(Cl)cnc12`, for which the LD50 was 2190 mg/kg.
For `Cc1cc2c(cc1C)C(=O)c1n[nH]nc1C2=O`, the LD50 is 980 mg/kg.
Take `N=C(N)Nc1ccc(C(=O)Oc2ccc3cc(C(=N)N)ccc3c2)cc1`: the LD50 is 3050 mg/kg.
For the molecule `C#CCBr`, the LD50 was 53 mg/kg.
Take `FC(F)(F)c1nc2c(Cl)cc(Cl)cc2[nH]1`: the LD50 was 3.29 mg/kg.
As for `Nc1ccc(N=Nc2ccc(O)cc2)cc1`, the LD50 was 1950 mg/kg.
In the case of `CN(C)CCCC(CCc1ccc2c(c1)OCO2)CCc1ccc2c(c1)OCO2`, the LD50 is 1230 mg/kg.
For `CCCCCc1ccccc1O`, the LD50 is 700 mg/kg.
Take `COc1cc(N)c(C)cc1N(C)C`: the LD50 is 29.7 mg/kg.
Regarding `Cc1ccc(N)nc1`, the LD50 is 200 mg/kg.
Consider `CC(CN(C)C)CN1c2ccccc2Sc2ccccc21` (configuration not stated), for which the LD50 is 210 mg/kg.
For the molecule `O=C(O)C[C@H](NC(=O)COc1ccc(Cl)cc1Cl)C(=O)O`, the LD50 is 1000 mg/kg.
On to `CCC(C)C(CN(C)C)c1ccc(OC)c(Cl)c1` (configuration not stated), for which the LD50 was 454 mg/kg.
With `O=C(O)c1cccc(Cl)c1Cl`, the LD50 is 300 mg/kg.
On to `CCNC(=S)NCC`, for which the LD50 was 316 mg/kg.
On to `CC(=O)Oc1ccccc1C(=O)OC(=O)c1ccccc1OC(C)=O`, for which the LD50 is 2200 mg/kg.
For the molecule `N#CSc1ccc(N)cc1`, the LD50 was 240 mg/kg.
Regarding `CCCc1nc(C)cc(OC(=O)N(C)C)n1`, the LD50 was 200 mg/kg.
`OCc1ccc(OCCn2ccnc2)cc1`: the LD50 was 4860 mg/kg.
In the case of `CN=C(O)Oc1cccc2c1OC(C)C2` (configuration not stated), the LD50 was 43 mg/kg.
`OC(CCl)CCl`: the LD50 is 110 mg/kg.
Turning to `COP(=O)(OC)OC(C)=CC(=O)OCc1ccc(Cl)cc1`, the 50% lethal dose (LD50) was 139 mg/kg.
Take `CN1CCC(=C2c3ccccc3CC(=O)c3sccc32)CC1`: the LD50 was 360 mg/kg.
With `COS(=O)(=O)OC`, the LD50 was 205 mg/kg.
Consider `CC(C)(C)N1CCC(c2ccccc2)(c2ccccc2)CC1`, for which the LD50 is 165 mg/kg.
Turning to `CCN(CC)CCC(CC=C(C)C)(C(N)=O)c1cccc2ccccc12` (configuration not stated), the LD50 was 71 mg/kg.
`C=CCOc1ccccc1OC(=O)NC`: the LD50 is 200 mg/kg.
`CCCCCCCCCCCCCCCCCCOP(=O)([O-])OCC[N+]1(C)CCCCC1`: the LD50 was 631 mg/kg.
On to `COC(OC)c1ccccc1`, for which the LD50 is 1220 mg/kg.
As for `CCCCN1C(=O)c2cccc([N+](=O)[O-])c2C1=O`, the LD50 is 2030 mg/kg.
As for `CCN(N=O)C(N)=O`, the LD50 was 300 mg/kg.
For the molecule `C=C1C(C)(C)C2(Cl)C(Cl)(Cl)C(Cl)(Cl)C1(Cl)C2(Cl)Cl` (configuration not stated), the LD50 is 40 mg/kg.
For the molecule `O=S(=O)(O)c1ccc2c(/N=N\c3ccc(S(=O)(=O)O)c4ccccc34)c(O)c(S(=O)(=O)O)cc2c1`, the LD50 was 6000 mg/kg.
In the case of `Cc1ccc(Cl)c(Nc2ccccc2C(=O)O)c1Cl`, the LD50 was 100 mg/kg.
Regarding `CN(C)CCOc1ccccc1Cc1ccccc1`, the LD50 is 1470 mg/kg and 1400 mg/kg.
As for `CCOP(=O)(OC=C(Cl)Cl)OCC(Cl)CCl` (configuration not stated), the LD50 is 66 mg/kg.
As for `CN(CCO)CC(O)Cn1cnc2c1c(=O)n(C)c(=O)n2C` (configuration not stated), the LD50 is 14100 mg/kg.
With `O=[N+]([O-])c1cccc(S(=O)(=O)O)c1`, the LD50 was 11000 mg/kg.
`CC1COC(C(Cl)(Cl)Cl)O1` (configuration not stated): the LD50 is 380 mg/kg.
For the molecule `CC1=CCC2CC(CC3(CCC(C)C(C(C)C)O3)O2)OC(=O)C2C=C(C)C(O)C3OCC(=CC=CC(C)C1)C23O` (configuration not stated), the LD50 is 2470 mg/kg.
Consider `O=S(=O)(F)C(F)(F)C(F)(F)C(F)(F)C(F)(F)C(F)(F)C(F)(F)C(F)(F)C(F)(F)F`, for which the LD50 is 154 mg/kg.
With `CC(=O)Nc1ccc([N+](=O)[O-])c(Cl)n1`, the LD50 was 1940 mg/kg.
For `COc1ccc2c(c1)c(CC(=O)Oc1cccc(C(F)(F)F)c1)c(C)n2C(=O)c1ccc(Cl)cc1`, the LD50 was 307 mg/kg.
Regarding `CC(C)(CO)S(C)(=O)=O`, the LD50 was 11300 mg/kg.
